Measurements: patent publication US7335352B1, “Method of identifying agents that inhibit quorum sensing activity of gamma-proteobacteria” (priority 2003, dated 2008)
“Also recorded” adds a separate entry of the source. Like-named read-outs stand apart in the source and are kept apart here.

Experiments:
[1] = tested on: P. aeruginosa PAO1; type: cell-based, Pseudomonas aeruginosa; settings: for Yield: substrate as energy source; for Use as sole source of energy or nitrogen: MES 5.5 media; for Utilization as an energy source: pH 5.5
Protocol: (§1) Media and growth conditions. LB, amended with antibiotics when appropriate, was used for growth and maintenance of all strains unless otherwise stated. For the 3OC12HSL-dependent enrichment of strain PAI-A and other growth experiments performed on this strain, modified “MES 5.5” defined-medium was used to enrich and study Variovorax paradoxus VAI-C (21). These modifications to the medium included buffering with 5 mM 3-(N-morpholino)-propanesulfonic acid (MOPS) at pH 7.2 and the addition of sodium sulfate (14 g·liter^−1) and magnesium chloride (4 g·liter^−1). For growth experiments with P. aeruginosa, “MES 5.5” defined medium was used as described previously (21) with the exception that it contained sodium sulfate, not sulfite, as S-source, a typographical error in the reported recipe. Unless otherwise noted, the medium was buffered to a pH of 5.5 with 5 mM 2-(N-morpholino)-ethanesulfonic acid (MES). Ammonium-free “MES 5.5” basal medium was used to examine the utilization of AHLs and HSL as potential nitrogen sources. 100 mM stock solutions of AHLs were prepared by dissolving AHLs in ethyl acetate that had been acidified with glacial acetic acid (0.01% v/v), and stocks were stored at −20° C. AHLs used in these studies were: N-3-oxododecanoyl-L-homoserine lactone (3OC12HSL; Quorum Sciences Inc., Iowa City Iowa), N-3-oxohexanoyl-L-homoserine lactone (3OC6HSL; Sigma), and from Fluka: N-3-butanoyl-DL-homoserine lactone (C4HSL), N-3-hexanoyl-DL-homoserine lactone (C6HSL), N-3-heptanoyl-DL-homoserine lactone (C7HSL), N-3-octanoyl-DL-homoserine lactone (C8HSL), N-3-[…], N-3-dodecanoyl-DL-homoserine lactone (C12HSL), N-3-tetradecanoyl-DL-homoserine lactone (C14HSL). For growth experiments, the AHL was dispensed into sterile tubes, the ethyl acetate was removed by evaporation under a stream of sterile air, and sterile medium was added to the dried AHL that remained. Stocks of L-HSL (Sigma) were prepared just prior to their use from well-desiccated reagent stored at −20° C. […] Cells were grown in 5 ml of medium in 18-mm tubes with shaking at 37° C. unless otherwise noted. AHL molecules are stable for approximately 30 days under the conditions of low pH in our defined medium (9, 34). Unless noted, all other reagents were of reagent grade.
(§2) Growth studies. Optical density measurements were performed at 600 nm using a Spectronic 20 spectrophotometer. […] When care was taken to vortex tubes gently, the changes in optical density reflecting growth could be monitored accurately. Molar growth yields were determined in the defined media containing the indicated substrate at a final concentration of 1 or 2 mM. For both Pseudomonas PAI-A and P. aeruginosa PAO1, factors for converting optical density to cell dry mass were determined by growing cells in media containing succinate as the energy source and NH4Cl as the nitrogen source, washing the cells with 50 mM ammonium acetate buffer (pH 5.5), and drying cell samples to a constant weight. Such determinations were made in quadruplicate.

[2] = tested on: Pseudomonas strain PAI-A; type: cell-based
Protocol: as §1, §2

[3] = biological target: T1, PvdQ AHL acylase (Pseudomonas aeruginosa, UniProt Q9I194); assay: AHL degradation by resting E. coli cells expressing recombinant PvdQ (LC/APCI-MS); type: cell-based, P. aeruginosa; settings: for HSL-releasing degradation by E. coli expressing recombinant PvdQ: resting cells OD600 1.2, MOPS pH 7.2, 18° C., 10 μM 3OC12HSL; for Product accumulation in PvdQ-expressing E. coli suspensions: incubated with 10 μM 3OC12HSL
T1 construct: The deduced coding region for PvdQ (Gene PA2385; www.pseudomonas.com) was amplified from the genomic DNA; expressed in transfected cells; host or cells: E. coli BL21PRO carrying pPvdQ-PROTet (pPROTet.E133-derived, aTc-inducible)
T1 sequence (Q9I194 24-193): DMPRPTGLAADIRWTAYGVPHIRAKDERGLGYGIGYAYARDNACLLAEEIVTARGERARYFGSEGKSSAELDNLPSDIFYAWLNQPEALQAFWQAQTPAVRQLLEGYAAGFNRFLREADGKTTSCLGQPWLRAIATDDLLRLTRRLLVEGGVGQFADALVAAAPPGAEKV
T1 sequence (Q9I194 217-762): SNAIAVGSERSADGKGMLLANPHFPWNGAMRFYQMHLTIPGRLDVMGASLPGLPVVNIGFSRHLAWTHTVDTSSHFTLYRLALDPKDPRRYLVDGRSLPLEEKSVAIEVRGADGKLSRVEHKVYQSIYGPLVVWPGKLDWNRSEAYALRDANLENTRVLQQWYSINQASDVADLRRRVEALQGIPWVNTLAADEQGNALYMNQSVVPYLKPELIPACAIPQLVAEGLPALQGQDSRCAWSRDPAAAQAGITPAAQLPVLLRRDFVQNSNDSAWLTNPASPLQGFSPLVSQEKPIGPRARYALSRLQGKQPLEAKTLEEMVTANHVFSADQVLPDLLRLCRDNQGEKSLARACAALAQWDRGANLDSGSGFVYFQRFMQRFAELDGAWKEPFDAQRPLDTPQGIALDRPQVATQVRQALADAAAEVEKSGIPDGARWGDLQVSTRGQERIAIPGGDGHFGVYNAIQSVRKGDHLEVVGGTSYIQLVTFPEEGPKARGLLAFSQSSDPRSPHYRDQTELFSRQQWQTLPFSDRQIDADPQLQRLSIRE
From the text: (§3) Analysis of cell-free culture and reaction fluids. […] Dilutions were made using “MES 5.5” medium.
Cloning and expression of pvdQ (PA2385) encoding a putative P. aeruginosa AHL acylase. Genomic DNA was isolated from P. aeruginosa PAO1 using the DNeasy™ tissue kit (QIAGEN) and used as a template for PCR. The deduced coding region for PvdQ (Gene PA2385; www.pseudomonas.com) was amplified from the genomic DNA using the following primers: 5′-[…]-3′ (SEQ ID NO:6) and 5′-[…]-3′ (SEQ ID NO:7; bold print indicates HindIII and NotI restriction sites, respectively), cloned into the appropriately digested expression vector, pPROTet.E133 (Clontech), and transformed into E. coli BL21PRO. Recombinant AHL acylase activity was examined as follows. After growth in LB medium containing spectinomycin (50 μg ml^−1) and chloramphenicol (34 μg ml^−1), and after gene induction by the addition of anhydrotetracycline (aTc, 100 ng ml^−1) at 18° C., cells were pelleted and resuspended to a final optical density of 1.2 in MOPS buffered media (pH 7.2) containing 10 μM 3OC12HSL. Recombinant cells that had not been induced with aTc were used as a negative control. Reaction mixtures were incubated at 18° C.; 150 μl samples were removed at 0, 15, 30, and 60 min and analyzed for AHL disappearance and product appearance via LC/APCI-MS (see above).

[4] = tested on: P. aeruginosa PAO1; settings: dense PAO1 cell suspension; 25 mM C12HSL
From the text: Analysis of cell-free culture and reaction fluids. For the initial characterization of the intermediates in AHL degradation, a TLC method was used (16).

[5] = tested on: Pseudomonas strain PAI-A; assay: TLC of reaction fluids of dense PAI-A cell suspensions incubated with AHL; type: cell-based; settings: dense PAI-A cell suspension; 25 mM C12HSL
From the text: as §3

[6] = tested on: P. aeruginosa PA14; assay: Growth of P. aeruginosa PA14 on 3OC12HSL as sole energy source; type: cell-based, Pseudomonas aeruginosa; settings: defined ammonia-replete media, pH 5.5 and 7.2, naive cells after lag
Protocol: Media and growth conditions. LB, amended with antibiotics when appropriate, was used for growth and maintenance of all strains unless otherwise stated. For the 3OC12HSL-dependent enrichment of strain PAI-A and other growth experiments performed on this strain, modified “MES 5.5” defined-medium was used to enrich and study Variovorax paradoxus VAI-C (21). These modifications to the medium included buffering with 5 mM 3-(N-morpholino)-propanesulfonic acid (MOPS) at pH 7.2 and the addition of sodium sulfate (14 g·liter^−1) and magnesium chloride (4 g·liter^−1). For growth experiments with P. aeruginosa, “MES 5.5” defined medium was used as described previously (21) with the exception that it contained sodium sulfate, not sulfite, as S-source, a typographical error in the reported recipe. Unless otherwise noted, the medium was buffered to a pH of 5.5 with 5 mM 2-(N-morpholino)-ethanesulfonic acid (MES). Ammonium-free “MES 5.5” basal medium was used to examine the utilization of AHLs and HSL as potential nitrogen sources. 100 mM stock solutions of AHLs were prepared by dissolving AHLs in ethyl acetate that had been acidified with glacial acetic acid (0.01% v/v), and stocks were stored at −20° C. […]

[7] = P. aeruginosa PAO1, minimal salts media pH 5.5
[8] = strain PAI-A, minimal salts media pH 7.2

Row | Compound | Doubling time [1, 7] | Yield [1, 7] | HSL-releasing degradation by E. coli expressing recombinant PvdQ [3] | Yield [2, 8] | other results
1 | CCCC(=O)NC1CCOC1=O (racemic) [C4HSL, N-3-butanoyl-DL-homoserine lactone] |  |  |  |  | Degradation of short chain AHL given as co-substrate ([1]; PAO-1, 1 mM C4HSL in 3OC12HSL-containing media): did not degrade detectable amounts; Degradation of short chain AHL given as co-substrate ([2]; PAI-A, 1 mM C4HSL in 3OC12HSL-containing media): did not degrade detectable amounts
2 | CCCCCCCC(=O)NC1CCOC1=O (racemic) [C8-DL-HSL, N-3-octanoyl-DL-homoserine lactone] | 15.0 ± 2 h | 95 ± 4 g/mol | catalyzed the HSL-releasing degradation |  | Yield (qualitative) [2, 8]: +, ND^b
3 | CCCCCCCCCC(=O)NC1CCOC1=O (racemic) [C10-DL-HSL, N-3-decanoyl-DL-homoserine lactone] | 14.0 ± 3.8 h | 97 ± 3 g/mol | catalyzed the HSL-releasing degradation |  | Yield (qualitative) [2, 8]: +, ND^
4 | CCCCCCCCCCCC(=O)NC1CCOC1=O (racemic) [C12-DL-HSL, N-3-dodecanoyl-DL-homoserine lactone] | 14.9 ± 7.5 h | 84 ± 7 g/mol | catalyzed the HSL-releasing degradation | 80 ± 18 g/mol | AHL-dependent release of ninhydrin-reactive materials (HSL, homoserine) by TLC [4]: AHL-dependent release of ninhydrin-reactive materials; Doubling time [2, 8]: 16.5 ± 3 h; AHL-dependent release of ninhydrin-reactive materials (HSL, homoserine) by TLC [5]: AHL-dependent release of ninhydrin-reactive materials
5 | CCCCCCCCCCCCCC(=O)NC1CCOC1=O (racemic) [C14-DL-HSL, N-3-tetradecanoyl-DL-homoserine lactone] | 21.0 ± 5.3 h | 84 ± 12 g/mol | catalyzed the HSL-releasing degradation |  | Yield (qualitative) [2, 8]: +, ND^
6 | CCCCCCCCCC(=O)CC(=O)N[C@H]1CCOC1=O [3OC12-L-HSL, N-3-oxododecanoyl-L-homoserine lactone] | 25.0 ± 3 h | 76 ± 10 g/mol | degraded 3OC12HSL; also recorded: Within an hour, the AHL disappeared | 84 ± .2 g/mol | Doubling time ([1]; PAO1, defined ammonia-replete media, pH 5.5 and 7.2, naive cells after lag): 264 to 600 h; Doubling time [6]: 11 to 25 days; Doubling time [2, 8]: 25.0 ± 3.5 h
7 | CCCCCCCCCC(=O)CC(=O)NC(CCO)C(=O)O (centres unmarked) [3OC12-homoserine] |  |  |  |  | Product accumulation in PvdQ-expressing E. coli suspensions [3]: No 3OC12-homoserine accumulation was observed
8 | CCCCCCCCCC(=O)O [Decanoate] |  | 130 ± 3 g/mol |  | 126 ± .5 g/mol | 
9 | CCCCCCCCCCCC(=O)O [Dodecanoate] |  | 141 ± 4 g/mol |  | 155 ± 8.4 g/mol | 
10 | N[C@H]1CCOC1=O [HSL, homoserine lactone] |  |  |  |  | Use as sole source of energy or nitrogen ([1]; P. aeruginosa PAO1): did not use; Utilization as an energy source ([1]; P. aeruginosa PAO1): Neither strain PAI-A nor PAO1 used; also recorded: did not grow; Utilization as an energy source ([2]; strain PAI-A, pH 7.2): Neither strain PAI-A nor PAO1 used; Product accumulation in PvdQ-expressing E. coli suspensions [3]: accumulation of stoichiometric amounts
11 | O=C(O)CCC(=O)O [Succinate] | 0.6 ± .09 h | 43 ± 3 g/mol |  |  | Doubling time [2]: 0.583 h; Doubling time ([2]; pH 7.2): 0.6 ± .02 h; Yield ([2]; pH 7.2): 49 ± 3.8 g/mol
12 | CCCCCCCCCCCCCC(=O)O [Tetradecanoate] |  | 177 ± 16 g/mol |  | 198 ± 3 g/mol | 
13 | N[C@@H](CCO)C(=O)O [homoserine] |  |  |  |  | Use as sole source of energy or nitrogen ([1]; P. aeruginosa PAO1): did not use; Utilization as an energy source ([1]; P. aeruginosa PAO1): did not grow
14 | CCn1cc(C(=O)O)c(=O)c2ccc(C)nc21 [nalidixate] |  |  |  |  | Growth in media containing the agent ([2]; PAI-A, 30 μg nalidixate·ml^−1): did not grow
